Data taken from patent US9169241B2, “Quinolinyloxyphenylsulfonamides” (Max-Planck-Gesellschaft Zur Forderung der Wissenschaften …, priority 2009, dated 2015).
pIC50: −log10 of the molar value. Where two headings read alike, the source gives them in different places.

Assays:
Assay type in all cases: cell-based
A172 = assay: Cell vitality assay (ATP assay, CellTiter-Glo); details: Homo sapiens, A 172; A172, 72 h; Table IIa; read-out: IC50 ATP-Assay after 72 h A172
Outline: (§1)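 IC50s reflect 50% loss of ATP-dependent luminescence versus DMSO control after a 72 h treatment of 1000 cells per well across 0.195–12.5 μM compound.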

C8161 [1] = assay: Cell vitality assay (ATP assay, CellTiter-Glo); details: Homo sapiens; C8161, 72 h; Table IIa; read-out: IC50 ATP-Assay after 72 h C8161
Outline: as §1

MDA-MB231 = assay: Cell vitality assay (ATP assay, CellTiter-Glo); details: Homo sapiens, MDA-MB-231; MDA-MB231, 72 h; Table IIa; read-out: IC50 ATP-Assay after 72 h MDA-MB231
Outline: as §1

SF763 [2] = assay: Cell vitality assay (ATP assay, CellTiter-Glo); details: SF763, 72 h; Table IIa; read-out: IC50 ATP-Assay after 72 h SF763
Outline: as §1

U138 [3] = assay: Cell vitality assay (ATP assay, CellTiter-Glo); details: U138, 72 h; Table IIa; read-out: IC50 ATP-Assay after 72 h U138
Outline: as §1

C8161 [4] = assay: Apoptosis assay (Cellomics, nucleus condensation); details: Homo sapiens, Table III, read-out: Apoptosis induction in C8161
Outline: (§2)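 5000 cells/well, Hoechst 33342 live stain; cpd 12.5, 6.25, 3.125, 1.56, 0.78, 0.39 μM or DMSO; imaged 24 h + 48 h; nuclear condensation = intensity variation per nucleus; cell number loss noted.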

Hs578T = assay: Apoptosis assay (Cellomics, nucleus condensation); details: Homo sapiens, Hs-578T, Table III, read-out: Apoptosis induction in Hs578T
Outline: as §2

SF126 = assay: Apoptosis assay (Cellomics, nucleus condensation); details: Homo sapiens, SF-126, Table III, read-out: Apoptosis induction in SF126
Outline: as §2

SF763 [5] = assay: Apoptosis assay (Cellomics, nucleus condensation); details: Table III, read-out: Apoptosis induction in SF763
Outline: as §2

U118 = assay: Apoptosis assay (Cellomics, nucleus condensation); details: Table III, read-out: Apoptosis induction in U118
Outline: as §2

U138 [6] = assay: Apoptosis assay (Cellomics, nucleus condensation); details: Table III, read-out: Apoptosis induction in U138
Outline: as §2

cells = assay: Boyden chamber migration assay (Table VI); details: Hs578T cells, 16 h migration
Outline: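 Migration read-out is a count of fixed cells on the underside of an […] insert membrane after 16 h. Chemoattractant was medium with 10% FCS in the lower chamber; 20000 cells started in serum-free medium with 0.1% BSA above, and those left on top were removed by swab.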

viable cells in culture = assay: Cell viability assay at 10 μM (CellTiter-Glo, Table VII); details: compound 10 μM, 72 h;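 also: graded A 0-20%; B 21-40%; C 41-60%; D over 60% viable cells relative to DMSO control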
Outline: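 Cells were seeded at 1000 cells/well in 96-well plates in 100 μl culture medium and incubated for 72 h with 10 μM compound or a DMSO control. ATP content, which reflects metabolically active and therefore viable cells, was then determined by CellTiter-Glo luminescence (Promega) per the manufacturer's instructions and expressed relative to the DMSO control.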

Work on COc1cc2c(Oc3ccc(NS(=O)(=O)c4ccccc4C(F)(F)F)cc3Cl)ccnc2cc1OCCCN1CCN(C)CC1 [Example 87, N-(3-Chloro-4-{6-methoxy-7-[3-(4-methyl-piperazin-1-yl)-propoxy]-quinolin-4-yloxy}-phenyl)-2-trifluoromethyl-benzenesulfonamide] yielded a pIC50 (A172) of no less than 4.90, a pIC50 (C8161 [1]) of no less than 4.90 and a pIC50 (MDA-MB231) of 4.30 to 4.90. It also gave a pIC50 (SF763 [2]) of no less than 4.90, a pIC50 (U138 [3]) of no less than 4.90 and a pIC50 (C8161 [4]) of no less than 4.90. It also gave a pIC50 (Hs578T) of no less than 4.90, a pIC50 (SF126) of no less than 4.90 and a pIC50 (SF763 [5]) of no less than 4.90. It also gave a pIC50 (U118) of no less than 4.90, a pIC50 (U138 [6]) of 4.30 to 4.90 and a pIC50 (cells; Homo sapiens, Hs-578T, 16 h) of 4.30 to 5.30. For the same molecule, the pIC50 (cells) was no less than 5.30, the viability at 10 µM (viable cells in culture; Homo sapiens, HCT-116, HCT116 def, read-out: percentage (%) of viable cells HCT 116def) was 0 to 20% and the viability at 10 µM (viable cells in culture; Homo sapiens, HCT-116, HCT116 wt, read-out: percentage (%) of viable cells HCT 116wt) was 41 to 60%. For the same molecule, the viability at 10 µM (viable cells in culture; Homo sapiens, HT-29, HT29, read-out: percentage (%) of viable cells HT29) was 0 to 20%, the viability at 10 µM (viable cells in culture; Homo sapiens, NCI-H358, H358, read-out: percentage (%) of viable cells H358) was 0 to 20% and the viability at 10 µM (viable cells in culture; Homo sapiens, NCI-H1650, H1650, read-out: percentage (%) of viable cells H1650) was 21 to 40%. For the same molecule, the viability at 10 µM (viable cells in culture; Homo sapiens, NCI-H1666, H1666, read-out: percentage (%) of viable cells H1666) was 41 to 60%, the viability at 10 µM (viable cells in culture; Homo sapiens, NCI-H1975, H1975, read-out: percentage (%) of viable cells H1975) was 0 to 20% and the viability at 10 µM (viable cells in culture; Homo sapiens, NCI-H1993, H1993, read-out: percentage (%) of viable cells H1993) was 41 to 60%. For the same molecule, the viability at 10 µM (viable cells in culture; Homo sapiens, A549, read-out: percentage (%) of viable cells A549) was greater than 60%, the viability at 10 µM (viable cells in culture; Homo sapiens, HCC827, read-out: percentage (%) of viable cells HCC827) was 41 to 60% and the viability at 10 µM (viable cells in culture; Homo sapiens, SW480, read-out: percentage (%) of viable cells SW480) was 0 to 20%. For the same molecule, the viability at 10 µM (viable cells in culture; RKO, read-out: percentage (%) of viable cells RKO) was 41 to 60%.
